From PubChem BioAssay (NCI)
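How tested: cells in 96-well plates exposed to compound for 48 hours at five concentrations. TGI marks complete inhibition of growth.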

Experiments:
Assay in all cases: inhibition of tumour cell growth, NCI panel, 48 h
786-0 renal = system: 786-0 renal
A498 renal = system: A498 renal
A549 NSCLC = system: A549 NSCLC
ACHN renal = system: ACHN renal
BT-549 breast = system: BT-549 breast
CAKI-1 renal = system: CAKI-1 renal
CCRF-CEM leukemia = system: CCRF-CEM leukemia
COLO 205 colon = system: COLO 205 colon
DU-145 prostate = system: DU-145 prostate
EKVX NSCLC = system: EKVX NSCLC
HCC-2998 colon = system: HCC-2998 colon
HCT-116 colon = system: HCT-116 colon
HCT-15 colon = system: HCT-15 colon
HL-60(TB) leukemia = system: HL-60(TB) leukemia
HOP-62 NSCLC = system: HOP-62 NSCLC
HS 578T breast = system: HS 578T breast
HT29 colon = system: HT29 colon
IGROV1 ovarian = system: IGROV1 ovarian
K-562 leukemia = system: K-562 leukemia
KM12 colon = system: KM12 colon
LOX IMVI melanoma = system: LOX IMVI melanoma
M14 melanoma = system: M14 melanoma
MALME-3M melanoma = system: MALME-3M melanoma
MCF7 breast = system: MCF7 breast
MDA-MB-231 breast = system: MDA-MB-231 breast
MDA-MB-435 = system: MDA-MB-435
MDA-N = system: MDA-N
MOLT-4 leukemia = system: MOLT-4 leukemia
NCI-H226 lung = system: NCI-H226 lung
NCI-H23 lung = system: NCI-H23 lung
NCI-H460 lung = system: NCI-H460 lung
OVCAR-3 ovarian = system: OVCAR-3 ovarian
OVCAR-4 ovarian = system: OVCAR-4 ovarian
OVCAR-5 ovarian = system: OVCAR-5 ovarian
OVCAR-8 ovarian = system: OVCAR-8 ovarian
PC-3 prostate = system: PC-3 prostate
RPMI-8226 leukemia = system: RPMI-8226 leukemia
RXF 393 renal = system: RXF 393 renal
SF-268 CNS = system: SF-268 CNS
SF-295 CNS = system: SF-295 CNS
SF-539 CNS = system: SF-539 CNS
SK-MEL-2 melanoma = system: SK-MEL-2 melanoma
SK-MEL-28 melanoma = system: SK-MEL-28 melanoma
SK-MEL-5 melanoma = system: SK-MEL-5 melanoma
SN12C renal = system: SN12C renal
SNB-19 CNS = system: SNB-19 CNS
SNB-75 CNS = system: SNB-75 CNS
SR leukemia = system: SR leukemia
SW-620 colon = system: SW-620 colon
T-47D breast = system: T-47D breast
TK-10 renal = system: TK-10 renal
U251 CNS = system: U251 CNS
UACC-257 melanoma = system: UACC-257 melanoma
UACC-62 melanoma = system: UACC-62 melanoma
UO-31 renal = system: UO-31 renal

Measured: TGI

Cc1ncc([N+](=O)[O-])n1CCNC(=O)CCCn1ccnc1[N+](=O)[O-]
> 100 µM: all assays above
